Assay results taken from patent publication US12707888B2, “Asymmetric donor-acceptor molecular dyes” (THE UNIVERSITY OF NORTH CAROLINA AT CHARLOTTE, priority 2019, dated 2026).

Columns and labels:
[1] = in cyclohexane; cited from earlier work
[2] = Lippert-Mataga analysis of excited state dipole moments; assay type: physicochemical; settings: semi-empirically calculated using the Lippert-Mataga equation
Procedure: The calculated HOMOs/LUMOs indicate that the strong solvatofluorochromism arises from an ICT mechanism, whereby the ground state has significant electron localization on the donor side of the molecule whereas the electron density shifts to the acceptor moiety in the excited state. To more directly quantify the strong ICT character of the TTz dyes, the excited-state dipole moments were calculated using the Lippert-Mataga equation (Eq 1):
[formula] where va and vf are the wavenumbers of the absorption and emission peaks in cm^−1, respectively; μ* and μ are the excited state and ground state dipoles, respectively; ϵ0 is the vacuum permittivity, h is Planck's constant, c is the speed of light, a is the Onsager cavity radius, Δf is the orientation polarizability, ϵ is the relative permittivity, and η is the refractive index. The dipoles were calculated using Spartan 2016 software, and the Onsager cavity radii were calculated using Gaussian '09 software.
FIGS. 9A and 9B show the Stokes shift of Bu2N-TTz-Py and Ph2N-TTz-COOH versus Δf, respectively. From the slopes of the Lippert-Mataga plots, the change between the dipole moments of the ground and excited states can be determined. Even though the Lippert-Mataga equation assumes no specific solvent-solute interactions (e.g. hydrogen bonding) and ignores solute polarizability, high degrees of linearity are apparent; and therefore, the estimations of the excited state dipoles are regarded as reliable. […] Perhaps owing to the minimal solvent interactions and rapid vibrational relaxation, the estimated changes in dipole moments (Δμ) are remarkably large (Table IV). […] Therefore, it is expected that these asymmetric TTzs dyes would be well suited to give high sensitivity in sensing applications whereby small changes in the polarity of the environment can lead to large differences in the wavelengths of fluorescence.

[3] = UV-Vis absorbance, fluorescence emission and quantum yield in organic solvents; assay type: physicochemical; settings: for peak absorbance λmax, abs: in DCM
Procedure: The absorption, emission, and fluorescence lifetime characteristics of all four TTz dyes were recorded in a variety of organic solvents (FIGS. 7A-7B, Table of FIG. 8). Additionally, HOMO/LUMO levels of the TTz dyes were determined computationally in Spartan 16 using B3LYP/6-31g. Molar absorptivities of all the TTz dyes ranged from 13,000 to 86,000 cm^−1M^−1. […] However, the peak absorbance of Bu2N-TTz-Py in DCM was slightly red-shifted as compared to that of Ph2N-TTz-Py (λmax, abs=429 nm vs λmax, abs=422 nm in DCM), which is attributed to the diphenylamine moiety having weaker donor characteristics. […] Due to the low estimated ground state dipole moments of the TTz dyes (μ=6-8 D), their wavelengths of absorbance remained relatively solvent independent (st. dev.=±11 nm).
4-pyridine carboxaldehyde, 4-(dibutylamino)benzaldehyde, 4-(diphenylamino)benzaldehyde, terephthalaldehyde, dithiooxamide, and all solvents used for spectroscopic measurements were purchased from Sigma-Aldrich and used without further purification. ^1H and ^13CNMR measurements were obtained with either a JEOL 300 MHz NMR or a JEOL 500 MHz NMR. High resolution mass spectra were obtained using a Thermo Fisher Scientific MSQ Plus Single Quadrupole Mass Spectrometer. Solution-state UV-Vis spectra were collected on a Cary 300 UV-Vis spectrophotometer. Time-resolved measurements were taken on a Jobin Yvon-Spex Fluorolog equipped with a 389 nm diode laser for time-resolved PL decay measurements. Igor Pro 6.3 software was used to fit PL(t) decay data to single/multiple exponential decays. Quantum yields were calculated using 9,10-diphenylanthracene as a reference (quantum yield [ΦF] in cyclohexane=0.97).^40-41 Density functional theory (DFT) calculations were performed with Spartan computational software using B3LYP^42-43 density functional and 6-31G*^44 basis set. Temperature studies were conducted using a 10 μM Bu2N-TTz-Py MeTHF solution placed inside of a Norrell 502 NMR tube and sequentially submerged in the following liquid N2 baths:octanol (−16° C.), acetonitrile (−41° C.), acetone (−94° C.), pentane (−131° C.), MeTHF (−136° C.), and liquid N2 itself (−196° C.). The phosphorescence spectrum of Bu2N-TTz-Py (see S2) was collected similarly at −196° C. by pumping with 389 nm light while inside a liquid nitrogen bath and then probing the emission within 2 sec of removing from the bath. Human embryonic kidney cells (HEK 293T) were a kind gift from Prof. Bryan Dickinson, and Mouse macrophage J774A.1 cells were a kind gift from Prof. Deborah Nelson at the University of Chicago. Cells were cultured in Dulbecco's Modified Eagle's Medium (Invitrogen Corporation, USA) containing 10% heat inactivated Fetal Bovine Serum (FBS) (Invitrogen Corporation, USA), 100 U/mL penicillin, and 100 μg/mL streptomycin. Cells were maintained at 37° C. under 5% CO2.

[4] = TCSPC fluorescence lifetime in solvents; assay type: physicochemical
Text: TCSPC measurements of the TTz dyes show a general upward trend for fluorescent lifetimes as the polarity increases in aprotic solvents—from 1.50-1.89 ns in nonpolar solvents to ~3.00 ns in polar, aprotic solvents (Table of FIG. 8). The fluorescence lifetimes in protic solvents have the opposite trend; that is, a decrease in the fluorescence lifetime as the polarity increases (e.g. for Ph2N-TTz-COOH: τf, iPrOH=2.40 ns, τf, MeOH=1.80 ns). The trend reversal in the fluorescence lifetime can most likely be attributed to the presence of hydrogen bonding in protic solvents. […] At the same time, the non-radiative rates of each TTz generally increases as solvent polarity increases. […] Regardless, the fact that the fluorescence lifetimes are solvent dependent opens up the possibility of using these TTz dyes for measuring micelle formation and viscosity in living cells using fluorescence lifetime imaging (FLIM).
4-pyridine carboxaldehyde, 4-(dibutylamino)benzaldehyde, 4-(diphenylamino)benzaldehyde, terephthalaldehyde, dithiooxamide, and all solvents used for spectroscopic measurements were purchased from Sigma-Aldrich and used without further purification. ^1H and ^13CNMR measurements were obtained with either a JEOL 300 MHz NMR or a JEOL 500 MHz NMR. High resolution mass spectra were obtained using a Thermo Fisher Scientific MSQ Plus Single Quadrupole Mass Spectrometer. […]

Row | Compound | quantum yield [ΦF] of reference [1] | Change in Dipole Δμ [2] | Excited State Dipole μ* [2] | peak absorbance λmax, abs [3] | fluorescence lifetime τf, MeOH ([4]; MeOH) | fluorescence lifetime τf, iPrOH ([4]; iPrOH) | largest Stokes shift ([3]; largest across solvents)
1 | c1ccc(-c2c3ccccc3c(-c3ccccc3)c3ccccc23)cc1 [9,10-diphenylanthracene] | 0.97 | – | – | – | – | – | –
2 | O=Cc1ccc(-c2nc3sc(-c4ccc(N(c5ccccc5)c5ccccc5)cc4)nc3s2)cc1 [Ph2N-TTz-CHO, 2-(N,N-diphenyl-4-aminophenyl)-5-(4-formylphenyl) thiazolo[5,4-d]thiazole] | – | 18.0 D | 24.9 D | 434 nm | – | – | –
3 | O=C(O)c1ccc(-c2nc3sc(-c4ccc(N(c5ccccc5)c5ccccc5)cc4)nc3s2)cc1 [Ph2N-TTz-COOH, 2-(N,N-diphenyl-4-aminophenyl)-5-(4-carboxyphenyl) thiazolo[5,4-d]thiazole] | – | 13.0 D | 21.3 D | – | 1.80 ns | 2.40 ns | –
4 | c1ccc(N(c2ccccc2)c2ccc(-c3nc4sc(-c5ccncc5)nc4s3)cc2)cc1 [Ph2N-TTz-Py, 2-(N,N-diphenyl-4-aminophenyl)-5-(4-pyridyl) thiazolo[5,4-d]thiazole] | – | 14.6 D | 20.8 D | 422 nm | – | – | 0.750 eV
